Reference: ChEMBL document CHEMBL1150095, “Antitumor activity and stereochemistry of acetylenic alcohols from the sponge Cribrochalina vasculum” (1995)

How the values were obtained:
Format in all cases: functional
MDA-N = experiment: Antitumor activity against human MDA-N cells
786-0 = experiment: Antitumor activity against human 786-0 cells
ACHN = experiment: Antitumor activity against human ACHN cells
OVCAR-8 = experiment: Antitumor activity against human OVCAR8 cells
HCT-116 = experiment: Antitumor activity against human HCT116 cells
[1] = Antitumor activity against human MCF7/ADR cells; settings: NCI/ADR-RES
M14 = experiment: Antitumor activity against human M14 cells
SK-MEL-5 = experiment: Antitumor activity against human SK-MEL-5 cells
HT-29 = experiment: Antitumor activity against human HT-29 cells
U-251 = experiment: Antitumor activity against human U251 cells
CCRF-CEM = experiment: Antitumor activity against human CCRF-CEM cells
HOP-62 = experiment: Antitumor activity against human HOP62 cells
RXF 393 = experiment: Antitumor activity against human RXF393 cells
NCI-H23 = experiment: Antitumor activity against human NCI-H23 cells
NCI-H226 = experiment: Antitumor activity against human NCI-H226 cells
SK-MEL-28 = experiment: Antitumor activity against human SK-MEL-28 cells
SW-620 = experiment: Antitumor activity against human SW620 cells
T47D = experiment: Antitumor activity against human T47D cells
UACC-62 = experiment: Antitumor activity against human UACC62 cells
[2] = Antitumor activity against human Hs 578T cells
MDA-MB-435 = experiment: Antitumor activity against human MDA-MB-435 cells
TK-10 = experiment: Antitumor activity against human TK10 cells
SN12C = experiment: Antitumor activity against human SN12C cells
EKVX = experiment: Antitumor activity against human EKVX cells
MCF7 = experiment: Antitumor activity against human MCF7 cells
IGROV-1 = experiment: Antitumor activity against human IGROV1 cells
PC-3 = experiment: Antitumor activity against human PC3 cells
NCI-H322M = experiment: Antitumor activity against human NCI-H322M cells
COLO 205 = experiment: Antitumor activity against human COLO205 cells
SF-295 = experiment: Antitumor activity against human SF295 cells
[3] = read-out: pLC50 (the source's name) (converted)

In the case of C#C[C@@H](O)/C=C/CCCCCCCCC/C=C\CCCCCC, the GI50 (MDA-N) is reported as 25.1 nM, the CC50 (MDA-N; [3]) is reported as 115 nM and the TGI (MDA-N; read-out: pTGI (converted)) is reported as 53.7 nM. The GI50 (786-0) was 42.7 nM, the CC50 (786-0; [3]) was 138 nM and the TGI (786-0; read-out: pTGI (converted)) was 77.6 nM. It also gave a GI50 (ACHN) of 45.7 nM, a CC50 (ACHN; [3]) of 141 nM and a TGI (ACHN; read-out: pTGI (converted)) of 79.4 nM. It also gave a GI50 (OVCAR-8) of 37.1 nM, a CC50 (OVCAR-8; [3]) of 132 nM and a TGI (OVCAR-8; read-out: pTGI) of 70.8 nM. It also gave a GI50 (HCT-116) of 25.1 nM, a CC50 (HCT-116; [3]) of 117 nM and a TGI (HCT-116; read-out: pTGI (converted)) of 55 nM. It also gave a GI50 [1] of 38 nM, a CC50 [1, 3] of 138 nM and a TGI ([1]; read-out: pTGI (converted)) of 72.4 nM. It also gave a GI50 (M14) of 8.32 nM, a CC50 (M14; [3]) of 100 nM and a TGI (M14; read-out: pTGI (converted)) of 39.8 nM. The GI50 (SK-MEL-5) was 32.4 nM, the CC50 (SK-MEL-5; [3]) was 129 nM and the TGI (SK-MEL-5; read-out: pTGI (converted)) was 64.6 nM. It also gave a GI50 (HT-29) of 30.9 nM, a CC50 (HT-29; [3]) of 138 nM and a TGI (HT-29; read-out: pTGI (converted)) of 66.1 nM. For the same compound, the GI50 (U-251) was 40.7 nM, the CC50 (U-251; [3]) was 138 nM and the TGI (U-251; read-out: pTGI (converted)) was 74.1 nM. For the same compound, the GI50 (CCRF-CEM) was 0.631 nM, the CC50 (CCRF-CEM; [3]) was 61.7 nM and the TGI (CCRF-CEM; read-out: pTGI (converted)) was 1.55 nM. The GI50 (HOP-62) was 52.5 nM, the CC50 (HOP-62; [3]) was 151 nM and the TGI (HOP-62; read-out: pTGI (converted)) was 89.1 nM. The GI50 (RXF 393) was 33.1 nM, the CC50 (RXF 393; [3]) was 132 nM and the TGI (RXF 393; read-out: pTGI (converted)) was 66.1 nM. The GI50 (NCI-H23) was 13.5 nM, the CC50 (NCI-H23; [3]) was 110 nM and the TGI (NCI-H23; read-out: pTGI (converted)) was 45.7 nM. It also gave a GI50 (NCI-H226) of 30.2 nM, a CC50 (NCI-H226; [3]) of 129 nM and a TGI (NCI-H226; read-out: pTGI (converted)) of 61.7 nM. The GI50 (SK-MEL-28) was 41.7 nM, the CC50 (SK-MEL-28; [3]) was 138 nM and the TGI (SK-MEL-28; read-out: pTGI (converted)) was 75.9 nM. It also gave a GI50 (SW-620) of 9.33 nM, a CC50 (SW-620; [3]) of 112 nM and a TGI (SW-620; read-out: pTGI (converted)) of 42.7 nM. It also gave a GI50 (T47D) of 6.31 nM, a CC50 (T47D; [3]) of 115 nM and a TGI (T47D; read-out: pTGI (converted)) of 42.7 nM. The GI50 (UACC-62) was 38.9 nM, the CC50 (UACC-62; [3]) was 135 nM and the TGI (UACC-62; read-out: pTGI (converted)) was 72.4 nM. The GI50 [2] was 44.7 nM, the CC50 [2, 3] was 170 nM and the TGI ([2]; read-out: pTGI (converted)) was 87.1 nM. It also gave a GI50 (MDA-MB-435) of 26.9 nM, a CC50 (MDA-MB-435; [3]) of 126 nM and a TGI (MDA-MB-435; read-out: pTGI (converted)) of 57.5 nM. The GI50 (TK-10) was 60.3 nM, the CC50 (TK-10; [3]) was 155 nM and the TGI (TK-10; read-out: pTGI (converted)) was 97.7 nM. For the same compound, the GI50 (SN12C) was 28.8 nM, the CC50 (SN12C; [3]) was 123 nM and the TGI (SN12C; read-out: pTGI (converted)) was 58.9 nM. The GI50 (EKVX) was 46.8 nM, the CC50 (EKVX; [3]) was 145 nM and the TGI (EKVX; read-out: pTGI (converted)) was 81.3 nM. For the same compound, the GI50 (MCF7) was 13.8 nM, the CC50 (MCF7; [3]) was 123 nM and the TGI (MCF7; read-out: pTGI (converted)) was 47.9 nM. It also gave a GI50 (IGROV-1) of 0.562 nM, a CC50 (IGROV-1; [3]) of 2.19 nM and a TGI (IGROV-1; read-out: pTGI (converted)) of 1.12 nM. For the same compound, the GI50 (PC-3) was 39.8 nM, the CC50 (PC-3; [3]) was 138 nM and the TGI (PC-3; read-out: pTGI (converted)) was 74.1 nM. For the same compound, the GI50 (NCI-H322M) was 53.7 nM, the CC50 (NCI-H322M; [3]) was 151 nM and the TGI (NCI-H322M; read-out: pTGI (converted)) was 91.2 nM. For the same compound, the GI50 (COLO 205) was 43.6 nM, the CC50 (COLO 205; [3]) was 141 nM and the TGI (COLO 205; read-out: pTGI (converted)) was 79.4 nM. For the same compound, the GI50 (SF-295) was 44.7 nM.
